Results published in PubChem BioAssay (NCI).
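How tested: cells in 96-well plates exposed to compound for 48 hours at five concentrations. GI50 is the concentration that inhibits growth by half. At the TGI there is no net growth.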

Tests used:
Assay in all cases: NCI tumour cell line growth inhibition, 48 h
SN12C renal = tested on: SN12C renal
OVCAR-4 ovarian = tested on: OVCAR-4 ovarian
ACHN renal = tested on: ACHN renal
NCI-H460 lung = tested on: NCI-H460 lung
CAKI-1 renal = tested on: CAKI-1 renal
MDA-MB-231 breast = tested on: MDA-MB-231 breast
SNB-19 CNS = tested on: SNB-19 CNS
SNB-75 CNS = tested on: SNB-75 CNS

SMILES | GI50 (SN12C renal) | TGI (SN12C renal) | GI50 (OVCAR-4 ovarian) | TGI (OVCAR-4 ovarian) | GI50 (ACHN renal) | TGI (ACHN renal) | GI50 (NCI-H460 lung) | TGI (NCI-H460 lung) | GI50 (CAKI-1 renal) | TGI (CAKI-1 renal) | GI50 (MDA-MB-231 breast) | TGI (MDA-MB-231 breast) | GI50 (SNB-19 CNS) | TGI (SNB-19 CNS) | TGI (SNB-75 CNS) | GI50 (SNB-75 CNS)
NC(=NC1CCCCCC1)c1ccc(N2CCN(c3ccc(C(N)=NC4CCCCCC4)cc3)CC2)cc1 | 2.33 µM | 16.9 µM | 26600 nM | > 50 µM | 46.4 µM | > 50 µM | 3.65 µM | 16.8 µM | > 50000 nM | > 50 µM | 8390 nM | 29 µM | 10.1 µM | 27.1 µM |  | 
CCc1oc2ccccc2c1C(=O)c1cc(Br)c(O)c(Br)c1 |  | 67.3 µM |  | > 100 µM |  | 31.3 µM |  | 34.2 µM |  | > 100 µM |  | 44.7 µM |  | > 100 µM | 48.6 µM | 
O=c1[nH]nc2c3c(cccc13)NC(CN1Cc3ccccc3C1)=N2 | 6.75 µM | > 100 µM | 5770 nM | > 100 µM | 4.92 µM | > 100 µM | 5.25 µM | > 100 µM | 4920 nM | > 100 µM | 5500 nM | > 100 µM | 52.3 µM | > 100 µM | > 100 µM | 2770 nM
Cc1cc(N/N=C/c2nc(-c3ccccc3)oc2C)c2cc(Cl)ccc2n1 | 1.78 µM | 3.49 µM | 1850 nM | 3.53 µM | 1.74 µM | 3.14 µM | 1.88 µM | 3.61 µM | 1690 nM | 3.1 µM | 1850 nM | 3.69 µM | 2.12 µM | 4.86 µM | 3.34 µM | 1630 nM
Cn1c(=O)c2[nH]c(COCc3nc4c([nH]3)c(=O)n(C)c(=O)n4C)nc2n(C)c1=O |  | > 100 µM |  | > 100 µM |  | > 100 µM |  | > 100 µM |  | > 100 µM |  | > 100 µM |  | > 100 µM | > 100 µM | 
O=[N+]([O-])c1cc(Br)cc2c1[nH]c1ccc(Br)cc12 | 53.8 µM | > 100 µM | 2480 nM | 8.47 µM | 3.31 µM | 19.9 µM | 4.66 µM | 66.6 µM | 2230 nM | 11.9 µM | 2710 nM | > 100 µM | 16.1 µM | 70.8 µM | 14.8 µM | 2120 nM
COc1cc(-c2cn(-c3ccc(Cl)cc3)c(=O)[nH]2)cc(OC)c1OC | > 100 µM | > 100 µM | > 100000 nM | > 100 µM | > 100 µM | > 100 µM | > 100 µM | > 100 µM | > 100000 nM | > 100 µM | > 100000 nM | > 100 µM | > 100 µM | > 100 µM | > 100 µM | > 100000 nM
c1ccc2[nH]c(-c3ccc(OCCCCCOc4ccc(-c5nc6ccccc6[nH]5)cc4)cc3)nc2c1 | 3.27 µM | 10.2 µM | 1760 nM | 3.64 µM | 3.29 µM | 11.9 µM | 1.6 µM | > 100 µM | 1970 nM | 6.8 µM | 2070 nM | 7.08 µM | 5.97 µM | > 28.4 µM | 3.69 µM | 1910 nM
Cc1nn2c(/C=C3/C(=O)Nc4ccc(Cl)cc43)c(-c3ccccc3)nc2s1 | 3.95 µM | 18.4 µM | 1660 nM | 3.64 µM | 2.96 µM | 14.4 µM | 3.18 µM | 11.7 µM | 1920 nM | 6.3 µM | 2290 nM | 8.41 µM | 9.54 µM | 34.2 µM | 2.69 µM | 1190 nM
COc1ccc(/C=C(\C#N)c2cc(OC)c3c(c2)OCO3)cc1 | 0.0583 µM | > 100 µM | 61.7 nM | > 66.6 µM | 0.0449 µM | 67.7 µM | < 0.01 µM | 4.28 µM | 465 nM | 90.8 µM | 55.3 nM | 46.3 µM | 0.0278 µM | > 100 µM |  | 10.2 nM
NC(=O)C1=C(c2ccccc2)c2ccccc2C1=O |  | 33.8 µM |  | 33.5 µM |  | 23.5 µM |  | 33.4 µM |  | 30.4 µM |  | 32.4 µM |  | 35.4 µM | 36.2 µM | 
Cc1ccc(NC2=C(Sc3ccc(Cl)cc3)C(=O)N(Cc3ccccc3)C2=O)cc1Cl | 12.3 µM | 29 µM | 4820 nM | 18 µM | 4.91 µM | 17.1 µM | 5.75 µM | 39.8 µM | 3440 nM | 15.9 µM | 3840 nM | 14.7 µM | 6.03 µM | 28.9 µM | 19.4 µM | 3920 nM
